Experimental data reported in ChEMBL document CHEMBL3507680, “University of Dundee, Gates Library screen for HepG2 cell viability”.

Experiment: Human HepG2 cell viability assay in 384 well format
Type: toxicity, cell-based
Set-up: dose 125 nL, time 70.5 hour; concentration not given beside the values
Details: HepG2 cells, read-out: Inhibition

Compound	cytotoxicity at 70.5 h
Cc1cc(CSCc2cc(C)on2)on1	12.2%
Cc1cc(CSc2ccccn2)on1	-3.89%
O=C(c1c(F)cccc1Br)N1CCCOCC1	3.06%
CC(C)(C)c1nc2cc(NC(=O)Cn3ccc(=O)[nH]c3=O)ccc2o1	-13.2%
CCC(CC)NC(=O)c1cccnc1-n1cccn1	18%
CN(C)c1ccc(NC(=O)C2CN(Cc3ccccc3)CCO2)cn1 (stereo not given)	-3.21%
O=C(O)c1ccn(-c2ccccc2NS(=O)(=O)c2cccc(Cl)c2F)n1	-7.81%
CCCC(NC(=O)c1cscc1C)c1nnn[nH]1 (stereo not given)	-2.41%
CC(CNC(=O)N1CCN(Cc2ccon2)CC1)N(C)C1CC1 (stereo not given)	-1.74%
COCCN1CCCC1c1cccc2c1OCCO2 (stereo not given)	7.8%
CC(CC(=O)NCCCn1cccn1)c1cccnc1 (stereo not given)	-6.56%
Cc1cccc(NC(=O)[C@@H]2CCCN2Cc2cnc3ccccn23)n1	1.07%
O=C(NCCCn1cccn1)N1CCCC1c1cccs1 (stereo not given)	-7.95%
Cc1cc(C)n(CC2CCCCN2CC(=O)Nc2ccncc2)n1 (stereo not given)	-0.378%
Cc1cc(C)n(CC2CCCN2CC(=O)Nc2nnc(C)s2)n1 (stereo not given)	0.949%
CCC(Nc1nc(C(F)(F)F)nc2ccccc12)C(=O)O (stereo not given)	2.5%
Cc1ccc(S(=O)(=O)NCCNC(=O)c2ccoc2)cc1C	-7.77%
CC(C)(C)OC(=O)NC(C)(C)c1noc(CSc2ccccn2)n1	-1.21%
CCCc1ccc(S(=O)(=O)NCCNC(=O)c2ccoc2)cc1	-6.96%
O=C(NCCNS(=O)(=O)c1ccc(C(F)(F)F)cc1)c1ccoc1	-6.84%

Compound	cytotoxicity at 70.5 h
CCS(=O)(=O)c1ccc(N2CCC(NC(=O)C(C)SC)CC2)cc1 (stereo not given)	-6.83%
Cn1c(C(=O)N2CCC(CC(N)=O)CC2)c(Cl)c2ccccc21	28.2%
CC(=O)N1CCN(C(=O)c2c(Cl)c3ccccc3n2C)CC1	-7.65%
COc1cccc(S(=O)(=O)CCN2CCN(CC(F)F)CC2)c1	1.26%
Cc1ccc(NC(=O)Cc2c(C)nc3c(c2C)c(=O)[nH]n3C)cc1F	-4.3%
c1nc(N2CCCCC2Cn2cncn2)c2sccc2n1 (stereo not given)	-5.69%
Cc1cnn(CC2CCCN2c2ncnc3sccc23)c1 (stereo not given)	1.15%
O=C(OCc1ccccc1)c1cccc(NC(=O)C2COCCO2)c1 (stereo not given)	1.04%
CC(C)NC(=O)NCCCc1cccc(F)c1	0.142%
Cc1nn(CCO)c(C)c1CNC1CCCCc2ccccc21 (stereo not given)	3.84%
CCc1nc(NS(=O)(=O)c2cc(C)ccc2Br)no1	1.48%
CCOC(=O)N1CCN(C(=O)C2CC(=O)N(c3ccccc3Br)C2)CC1 (stereo not given)	-2.99%
Cc1nc(C)n(CC2CCCN2CC(=O)Nc2nncs2)n1 (stereo not given)	-0.801%
Cc1ccc(S(=O)(=O)NCCc2cccnc2)cc1C	-3.85%
COc1ccc(S(=O)(=O)NCCC(=O)NCc2ccoc2)cc1OC	-11.3%
O=C(Nc1nncs1)NC1CCCc2c1cnn2CCO (stereo not given)	4.56%
CCC(CC)C(=O)Nc1ccc2oc(=O)n(CCN(C)C)c2c1	12.5%
CCC(C)C(=O)Nc1ccc2oc(=O)n(CCN(C)C)c2c1 (stereo not given)	-1.79%
O=C(NC1CCCCC1)NC1CCCc2c1cnn2CCO (stereo not given)	-5.64%
CN(C)CCn1c(=O)oc2ccc(NC(=O)N3CCCCCC3)cc21	35.5%

Compound	cytotoxicity at 70.5 h
CCC(O)CN1CCN(C(=O)c2cnn(-c3ccccc3F)c2)CC1 (stereo not given)	2.94%
CC/C=C(/C)C(=O)NCCc1csc(N2CCCC2)n1	-0.998%
CC(C)(C)SCC(=O)NCCc1csc(N2CCCC2)n1	-6.06%
O=C(O)c1csc(S(=O)(=O)Nc2c(F)cccc2-n2cccn2)c1	4.64%
COc1c(C)cnc(CSc2nnc(NC3CC3)s2)c1C	-1.65%
O=C1CCCN1Cc1nnc(SCc2ccc3c(c2)CCC3)o1	9.34%
Cc1ccc(C2COCCN2C(=O)c2cccc(N(C)C)c2)o1 (stereo not given)	-7.51%
CCN(CC1CN(Cc2cccnc2)CCO1)c1cccnn1 (stereo not given)	-0.418%
Cc1ccc(C2COCCN2C(=O)c2ccc(C)s2)o1 (stereo not given)	-9.04%
Cc1ccc(C2COCCN2C(=O)c2ccsc2)o1 (stereo not given)	-8.5%
CCN(CC1CN(Cc2nc(C3CC3)no2)CCO1)c1cccnn1 (stereo not given)	-16.6%
COc1ccc(C(=O)N(CCC#N)Cc2ccccn2)cc1	-2.45%
Cc1n[nH]c(C)c1C1COCCN1c1ncnc2sccc12 (stereo not given)	-13%
CCN(CC1CN(Cc2ccccn2)CCO1)c1cccnn1 (stereo not given)	-9.99%
CCN(CC1CN(Cc2nccn2CC)CCO1)c1cccnn1 (stereo not given)	-9.34%
CCc1ncc2c(n1)CN(Cc1cccc3c1OCCO3)CC2	-3.18%
CCN1CCC(NC(=O)NC2CCOc3ccc(Br)cc32)CC1 (stereo not given)	-3.03%
Cc1noc(C)c1CN(C)C(=O)NCCOc1ccc(F)cc1F	-6.66%
COC(=O)NCC(=O)NCC(C)(C)c1cccc(Br)c1	-0.269%
Cc1ccc2c(c1)CCC2NCc1c(C)nn(CCO)c1C (stereo not given)	-6.83%
